Measured values reported in patent US20250195513A1, “DEGRADATION OF IRAK4 BY CONJUGATION OF IRAK4 INHIBITORS WITH E3 LIGASE LIGAND AND METHODS OF USE” (BeiGene, Ltd., priority 2022, published 2025).

How the values were obtained:
[1] = biological target: T1, IRAK4 (Homo sapiens, UniProt Q9NWZ3); experiment: IRAK4 Degradation Assay (Karpas299, HTRF/TR-FRET); format: cell-based; details: Karpas-299 cells, 24 h treatment; for Dmax: maximum percentage of degradation, read-out: IRAK4 in Karpas-299 (24 h) Dmax (%); for DC50: read-out: IRAK4 in Karpas-299 (24 h) DC50
T1 construct: endogenous in cells; host or cells: Karpas299
T1 sequence (Q9NWZ3 1-460): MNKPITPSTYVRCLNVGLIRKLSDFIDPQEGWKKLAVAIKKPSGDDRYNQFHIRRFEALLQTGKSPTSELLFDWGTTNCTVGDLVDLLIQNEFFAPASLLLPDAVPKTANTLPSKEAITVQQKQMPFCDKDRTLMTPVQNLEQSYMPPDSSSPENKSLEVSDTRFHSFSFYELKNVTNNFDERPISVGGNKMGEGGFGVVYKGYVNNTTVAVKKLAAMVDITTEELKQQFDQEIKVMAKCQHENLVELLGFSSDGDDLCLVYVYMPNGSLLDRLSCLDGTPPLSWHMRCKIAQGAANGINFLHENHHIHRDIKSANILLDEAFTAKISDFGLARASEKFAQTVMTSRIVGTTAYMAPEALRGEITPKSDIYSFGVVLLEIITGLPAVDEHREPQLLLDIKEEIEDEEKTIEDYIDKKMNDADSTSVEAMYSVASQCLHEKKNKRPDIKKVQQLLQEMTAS
Outline: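 Compound potency as DC50 (IC50) came from four-parameter fits of percent IRAK4 degradation. IRAK4 was measured by HTRF (665/620 nm) in lysates of Karpas299 cells seeded at 0.2 million per well. Cells had been treated with compound dilutions for 5 or 24 h.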

[2] = biological target: T1, IRAK4; experiment: IRAK4 Degradation Assay with Human Serum (Karpas299, HTRF/TR-FRET); format: cell-based; details: Karpas-299 in human serum, 24 hrs treatment; for DC50: read-out: IRAK4 degradtion with human serum assay DC50; for Dmax: read-out: IRAK4 degradtion with human serum assay Dmax (%)
Outline: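 Remaining IRAK4 measured by TR-FRET immunoassay on lysates of Karpas299 cells exposed 24 h to compound dilution series in human serum AB. DC50 derived from a Hill-slope fit of % degradation versus concentration.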

SMILES	Dmax [1] [%]	DC50 [1] [nM]	DC50 [2] [nM]	Dmax [2] [%]
CC(C)(O)c1cc2nn([C@H]3CC[C@H](C4CCN(C5CCN(c6cc(F)c([C@H]7CCC(=O)NC7=O)c(F)c6)CC5)CC4)CC3)cc2cc1NC(=O)c1ccc2cc(C#N)cnn12 [Example 409, 3-cyano-N-(2-((1r,4r)-4-(1′-(4-((R)-2,6-dioxopiperidin-3-yl)-3,5-difluorophenyl)-[1,4′-bipiperidin]-4-yl)cyclohexyl)-6-(2-hydroxypropan-2-yl)-2H-indazol-5-yl)pyrrolo[1,2-b]pyridazine-7-carboxamide]	97	3.5	10	96
CC(C)(O)c1cc2nn([C@H]3CC[C@H](N4CCN(CCCc5cc(F)c([C@H]6CCC(=O)NC6=O)c(F)c5)CC4)CC3)cc2cc1NC(=O)c1ccc2cc(C#N)cnn12 [Example 357, 3-cyano-N-(2-((1R,4r)-4-(4-(3-(4-((R)-2,6-dioxopiperidin-3-yl)-3,5-difluorophenyl)propyl)piperazin-1-yl)cyclohexyl)-6-(2-hydroxypropan-2-yl)-2H-indazol-5-yl)pyrrolo[1,2-b]pyridazine-7-carboxamide]	97	1.1	12	97
CC(C)(O)c1cc2nn([C@H]3CC[C@H](N4CCN(C[C@@H]5CCN(c6cc(F)c([C@H]7CCC(=O)NC7=O)c(F)c6)C5)CC4)CC3)cc2cc1NC(=O)c1ccc2cc(C#N)cnn12 [Example 392, 3-cyano-N-(2-((1S,4r)-4-(4-(((S)-1-(4-((R)-2,6-dioxopiperidin-3-yl)-3,5-difluorophenyl)pyrrolidin-3-yl)methyl)piperazin-1-yl)cyclohexyl)-6-(2-hydroxypropan-2-yl)-2H-indazol-5-yl)pyrrolo[1,2-b]pyridazine-7-carboxamide]	97	0.9	11	98
COC[C@H]1CN(C2CCN(c3cc(F)c([C@H]4CCC(=O)NC4=O)c(F)c3)CC2)CCN1[C@H]1CC[C@H](n2cc3cc(NC(=O)c4ccc5cc(C#N)cnn45)c(C(C)(C)O)cc3n2)CC1 [Example 324, 3-cyano-N-(2-((1R,4r)-4-((R)-4-(1-(4-((R)-2,6-dioxopiperidin-3-yl)-3,5-difluorophenyl)piperidin-4-yl)-2-(methoxymethyl)piperazin-1-yl)cyclohexyl)-6-(2-hydroxypropan-2-yl)-2H-indazol-5-yl)pyrrolo[1,2-b]pyridazine-7-carboxamide]	95	1	23	99
CC(C)(O)c1cc2nn([C@H]3CC[C@H](CN4CCN(CCNc5cccc6c5C(=O)N(C5CCC(=O)NC5=O)C6=O)CC4)CC3)cc2cc1NC(=O)c1ccc2cc(C#N)cnn12 (some centres unmarked) [Example 438, 3-cyano-N-(2-((1r,4r)-4-((4-(2-((2-(2,6-dioxopiperidin-3-yl)-1,3-dioxoisoindolin-4-yl)amino)ethyl)piperazin-1-yl)methyl)cyclohexyl)-6-(2-hydroxypropan-2-yl)-2H-indazol-5-yl)pyrrolo[1,2-b]pyridazine-7-carboxamide]	96	2.5	17	96
CC(C)(O)c1cc2nn([C@H]3CC[C@H](N4CCN(CCNc5cccc6c5C(=O)N(C5CCC(=O)NC5=O)C6=O)CC4)CC3)cc2cc1NC(=O)c1ccc2cc(C#N)cnn12 (some centres unmarked) [Example 437, 3-cyano-N-(2-((1r,4r)-4-(4-(2-((2-(2,6-dioxopiperidin-3-yl)-1,3-dioxoisoindolin-4-yl)amino)ethyl)piperazin-1-yl)cyclohexyl)-6-(2-hydroxypropan-2-yl)-2H-indazol-5-yl)pyrrolo[1,2-b]pyridazine-7-carboxamide]	99	4.7	9.4	101
COc1cc(N2CC(C(=O)N3CCN([C@H]4CC[C@H](n5cc6cc(NC(=O)c7ccc8cc(C#N)cnn78)c(C(C)(C)O)cc6n5)CC4)CC3)C2)c(F)cc1N1CCC(=O)NC1=O [Example 258, 3-cyano-N-(2-((1r,4r)-4-(4-(1-(4-(2,4-dioxotetrahydropyrimidin-1(2H)-yl)-2-fluoro-5-methoxyphenyl)azetidine-3-carbonyl)piperazin-1-yl)cyclohexyl)-6-(2-hydroxypropan-2-yl)-2H-indazol-5-yl)pyrrolo[1,2-b]pyridazine-7-carboxamide]	96	2.6	21	97
C[C@H]1CN(C2CN(c3cc(F)c([C@H]4CCC(=O)NC4=O)c(F)c3)C2)CCN1[C@H]1CC[C@H](n2cc3cc(NC(=O)c4ccc5cc(C#N)cnn45)c(C(C)(C)O)cc3n2)CC1 [Example 308, 3-cyano-N-(2-((1S,4r)-4-((S)-4-(1-(4-((R)-2,6-dioxopiperidin-3-yl)-3,5-difluorophenyl)azetidin-3-yl)-2-methylpiperazin-1-yl)cyclohexyl)-6-(2-hydroxypropan-2-yl)-2H-indazol-5-yl)pyrrolo[1,2-b]pyridazine-7-carboxamide]	97	1.5	8.9	99
Cc1nc(C2CCC(=O)NC2=O)ccc1N1CCC(N2CCN(C[C@H]3CC[C@H](n4cc5cc(NC(=O)c6ccc7cc(C#N)cnn67)c(C(C)(C)O)cc5n4)CC3)CC2)CC1 (some centres unmarked) [Example 420, 3-cyano-N-(2-((1r,4r)-4-((4-(1-(6-(2,6-dioxopiperidin-3-yl)-2-methylpyridin-3-yl)piperidin-4-yl)piperazin-1-yl)methyl)cyclohexyl)-6-(2-hydroxypropan-2-yl)-2H-indazol-5-yl)pyrrolo[1,2-b]pyridazine-7-carboxamide]	97	2.8	17	96
CC(C)(O)c1cc2nn([C@H]3CC[C@H](N4CCN(CC5CCN(c6ccc7c(c6)CN(C6CCC(=O)NC6=O)C7=O)CC5)CC4)CC3)cc2cc1NC(=O)c1ccc2cc(C#N)cnn12 (some centres unmarked) [Example 353, 3-cyano-N-(2-((1r,4r)-4-(4-((1-(2-(2,6-dioxopiperidin-3-yl)-1-oxoisoindolin-5-yl)piperidin-4-yl)methyl)piperazin-1-yl)cyclohexyl)-6-(2-hydroxypropan-2-yl)-2H-indazol-5-yl)pyrrolo[1,2-b]pyridazine-7-carboxamide]	95	0.8	3.5	88
COC[C@H]1CN([C@H]2CC[C@H](n3cc4cc(NC(=O)c5ccc6cc(C#N)cnn56)c(C(C)(C)O)cc4n3)CC2)CCN1C1CN(c2cc(F)c([C@H]3CCC(=O)NC3=O)c(F)c2)C1 [Example 318, 3-cyano-N-(2-((1R,4r)-4-((R)-4-(1-(4-((R)-2,6-dioxopiperidin-3-yl)-3,5-difluorophenyl)azetidin-3-yl)-3-(methoxymethyl)piperazin-1-yl)cyclohexyl)-6-(2-hydroxypropan-2-yl)-2H-indazol-5-yl)pyrrolo[1,2-b]pyridazine-7-carboxamide]	91	1.1	39	95
CC(C)(O)c1cc2nn([C@H]3CC[C@H](N4CCN(C5CN(c6cc(F)c([C@H]7CCC(=O)NC7=O)c(F)c6)C5)CC4=O)CC3)cc2cc1NC(=O)c1ccc2cc(C#N)cnn12 [Example 335, 3-cyano-N-(2-((1R,4r)-4-(4-(1-(4-((R)-2,6-dioxopiperidin-3-yl)-3,5-difluorophenyl)azetidin-3-yl)-2-oxopiperazin-1-yl)cyclohexyl)-6-(2-hydroxypropan-2-yl)-2H-indazol-5-yl)pyrrolo[1,2-b]pyridazine-7-carboxamide]	93	0.6	64	99
CC(C)(O)c1cc2nn(C34CC(N5CCN(CC6CCN(c7ccc8c(c7)CN(C7CCC(=O)NC7=O)C8=O)CC6)CC5)(C3)C4)cc2cc1NC(=O)c1ccc2cc(C#N)cnn12 (centres unmarked) [Example 401, 3-cyano-N-(2-(3-(4-((1-(2-(2,6-dioxopiperidin-3-yl)-1-oxoisoindolin-5-yl)piperidin-4-yl)methyl)piperazin-1-yl)bicyclo[1.1.1]pentan-1-yl)-6-(2-hydroxypropan-2-yl)-2H-indazol-5-yl)pyrrolo[1,2-b]pyridazine-7-carboxamide]	94	1.2	7.4	94
CC(C)(O)c1cc2nn([C@H]3CC[C@H](N4CCN(C5CCN(c6ccc7c(c6)CN(C6CCC(=O)NC6=O)C7=O)CC5)CC4)CC3)cc2cc1NC(=O)c1ccc2cc(C#N)cnn12 (some centres unmarked) [Example 417, 3-cyano-N-(2-((1r,4r)-4-(4-(1-(2-(2,6-dioxopiperidin-3-yl)-1-oxoisoindolin-5-yl)piperidin-4-yl)piperazin-1-yl)cyclohexyl)-6-(2-hydroxypropan-2-yl)-2H-indazol-5-yl)pyrrolo[1,2-b]pyridazine-7-carboxamide]	95	0.9	4.5	95
